# From US6777440B2, “HIV integrase inhibitors” (Bristol-Myers Squibb Company, priority 2001, dated 2004)
# Columns and labels:
# [1] = molecular target: T1, HIV-integrase (Human immunodeficiency virus type 1 group M subtype B, UniProt P04585); assay: HIV-integrase inhibition activity (SPA bead strand-transfer assay); assay type: biochemical; settings: 50 μM compound; recombinant integrase
# T1 construct: 0.26 ng of recombinant integrase was incubated with the beads
# Description: For each reaction, 5 pmole of biotin labled substrate DNA was bound to 100 ug of Streptavidin coated PVT SPA beads (Amersham Pharmacia Biotech). 0.26 ng of recombinant integrase was incubated with the beads for 90 min at 37° C. Unbound enzyme was removed by washing the complex followed by addition of inhibitors and 0.1 fmol of P33 labeled target DNA. Reaction was stopped by adding EDTA to a final concentration of 10 mM. Samples were counted in TopCountNXT (Packard) and the CPM was used as a measure of integration. Reaction condition was as described in A. Engelman and R. Craigie, J. Virol. 69, 5908-5911 (1995). The sequences of substrate and target DNA were described in Nucleic Acid Research 22, 1121-1122 (1994). Compounds of this invention tested in this assay have IC50's of approximately 0.01 to 50 μM
SMILES,melting point,inhibition at 50 µM [1] [%]
"CON(Cc1ccc(F)c(C#N)c1)C(=O)/C=C(\O)C(=O)O [Compound 19, 3-[(3-Cyano-4-fluoro-benzyl)-methoxy-carbamoyl]-2-hydroxy-acrylic acid]",144 to 151 °C (dec.),99.9
CCNC(=O)CON(Cc1ccc(F)cc1)C(=O)/C=C(\O)C(=O)O [Compound 78],–,> 99
CN(CCCN1c2ccccc2CCc2ccccc21)C(=O)CON(Cc1ccc(F)cc1)C(=O)/C=C(\O)C(=O)O [Compound 63],–,> 99
"CN(C)C(=O)CON(Cc1ccc(F)cc1)C(=O)/C=C(\O)C(=O)O [Compound 22, 3-[Dimethylcarbamoylmethoxy-(4-fluoro-benzyl)-carbamoyl]-2-hydroxy-acrylic acid]",118 to 120 °C,99.9
O=C(CON(Cc1ccc(F)cc1)C(=O)/C=C(\O)C(=O)O)NCc1ccc(C(F)(F)F)cc1 [Compound 69],–,> 99
O=C(CON(Cc1ccc(F)cc1)C(=O)/C=C(\O)C(=O)O)NCc1ccc(Cl)cc1 [Compound 66],–,> 99
CN(CCCC(c1ccc(Cl)cc1)c1ccc(Cl)cc1)C(=O)CON(Cc1ccc(F)cc1)C(=O)/C=C(\O)C(=O)O [Compound 71],–,> 99
"CC(C)(C)OC(=O)CON(Cc1ccc(F)cc1)C(=O)/C=C(\O)C(=O)O [Compound 20, 3-[tert-Butoxycarbonylmethoxy-(4-fluoro-benzyl)-carbamoyl]-2-hydroxy-acrylic acid]",73 °C (dec.),99.9
O=C(CON(Cc1ccc(F)cc1)C(=O)/C=C(\O)C(=O)O)NCc1ccc(F)cc1 [Compound 65],–,> 99
"CC(C)CON(Cc1ccc(F)cc1)C(=O)/C=C(\O)C(=O)O [Compound 13, 3-[(4-Fluoro-benzyl)-isobutoxy-carbamoyl]-2-hydroxy-acrylic acid]",100 to 101 °C,99.9
CCCN(CC1CC1)C(=O)CON(Cc1ccc(F)cc1)C(=O)/C=C(\O)C(=O)O [Compound 73],–,> 99
COc1ccc(CNC(=O)CON(Cc2ccc(F)cc2)C(=O)/C=C(\O)C(=O)O)cc1 [Compound 67],–,> 99
CC(NC(=O)CON(Cc1ccc(F)cc1)C(=O)/C=C(\O)C(=O)O)c1ccccc1 (stereo not shown) [Compound 64],–,> 99
CC(C)CNC(=O)CON(Cc1ccc(F)cc1)C(=O)/C=C(\O)C(=O)O [Compound 79],–,> 99
CCCCCCN(CCCCCC)C(=O)CON(Cc1ccc(F)cc1)C(=O)/C=C(\O)C(=O)O [Compound 75],–,> 99
CC(C)CN(CC(C)C)C(=O)CON(Cc1ccc(F)cc1)C(=O)/C=C(\O)C(=O)O [Compound 74],–,> 99

SMILES,melting point,inhibition at 50 µM [1] [%]
CCCCN(Cc1ccccc1)C(=O)CON(Cc1ccc(F)cc1)C(=O)/C=C(\O)C(=O)O [Compound 72],–,> 99
"CON(Cc1ccccc1F)C(=O)/C=C(\O)C(=O)O [Compound 8, 3-[(2-Fluoro-benzyl)-methoxy-carbamoyl]-2-hydroxy-acrylic acid]",–,99.9
"CON(Cc1ccc(F)c(Br)c1)C(=O)/C=C(\O)C(=O)O [Compound 14, 3-[(3-Bromo-4-fluoro-benzyl)-methoxy-carbamoyl]-2-hydroxy-acrylic acid]",140 to 141 °C,99.9
O=C(O)/C(O)=C/C(=O)N(Cc1ccc(F)cc1)OCC(=O)N(C1CCCCC1)C1CCCCC1 [Compound 76],–,> 99
"CON(Cc1cccc(F)c1)C(=O)/C=C(\O)C(=O)O [Compound 7, 3[(3-Fluoro-benzyl)-methoxy-carbamoyl]-2-hydroxy-acrylic acid]",–,99.9
"COc1ccc(CN(OC)C(=O)/C=C(\O)C(=O)O)cc1 [Compound 16, 2-Hydroxy-3-[methoxy-(4-methoxy-benzyl)-carbamoyl]-acrylic acid]",83 to 86 °C,99
"CON(Cc1ccc(NC(C)=O)cc1)C(=O)/C=C(\O)C(=O)O [Compound 23, 3-[(4-Acetylamino-benzyl)-methoxy-carbamoyl]-2-hydroxy-acrylic acid]",155 °C (dec.),65
O=C(O)/C(O)=C/C(=O)N(Cc1ccc(F)cc1)OCC(=O)N1CCOCC1 [Compound 62],–,> 99
CC(NC(=O)CON(Cc1ccc(F)cc1)C(=O)/C=C(\O)C(=O)O)c1ccc(F)cc1 (stereo not shown) [Compound 70],–,> 99
CC(=O)N1CCCN(C(=O)CON(Cc2ccc(F)cc2)C(=O)/C=C(\O)C(=O)O)CC1 [Compound 77],–,> 99
"CON(Cc1ccc(Cl)cc1)C(=O)/C=C(\O)C(=O)O [Compound 10, 3-[(4-Chloro-benzyl)-methoxy-carbamoyl]-2-hydroxy-acrylic acid]",–,99.9
"O=C(O)/C(O)=C/C(=O)N(Cc1ccc(Cl)c(Cl)c1)OCc1ccccc1 [Compound 6, 3-[Benzyloxy-(3,4-dichloro-benzyl)-carbamoyl]-2-hydroxy-acrylic acid]",–,99.9
"O=C(O)/C(O)=C/C(=O)N(Cc1ccccc1)OCc1ccccc1 [Compound 2, 3-(Benzyl-benzyloxy-carbamoyl)-2-hydroxy-acrylic acid]",–,99.9
"CON(Cc1ccccc1)C(=O)/C=C(\O)C(=O)O [Compound 1, 3-(Benzyl-methoxy-carbamoyl)-2-hydroxy-acrylic acid]",–,99
Cc1ccc(CNC(=O)CON(Cc2ccc(F)cc2)C(=O)/C=C(\O)C(=O)O)cc1 [Compound 68],–,> 99

# Second part, led by results:
melting point,SMILES,inhibition at 50 µM [1] [%]
129 to 130 °C,CON(Cc1ccc(Cl)cc1)C(=O)/C=C1\OC(C)(C)OC1=O,–
113 to 116 °C,CC1(C)OC(=O)/C(=C/C(=O)N(Cc2ccc(Cl)c(Cl)c2)OCc2ccccc2)O1,–
106 °C (dec.),CON(CCCc1ccc(Cl)c(Cl)c1)C(=O)/C=C(\O)C(=O)O,–
131 °C,CON(Cc1ccc(C)c(F)c1)C(=O)/C=C1\OC(C)(C)OC1=O,–
217 to 219 °C,CON(Cc1ccc(C(=O)O)cc1)C(=O)/C=C1\OC(C)(C)OC1=O,–
127 to 129 °C,CC(C)(C)OC(=O)CON(Cc1ccc(Cl)c(Cl)c1)C(=O)/C=C1\OC(C)(C)OC1=O,–
86 °C (dec.),CON(CCCc1ccc(F)cc1)C(=O)/C=C(\O)C(=O)O,–
90 to 91 °C,CON(CCCc1ccc(F)cc1)C(=O)/C=C1\OC(C)(C)OC1=O,–
129 to 130 °C,CON(Cc1ccc(F)cc1C(F)(F)F)C(=O)/C=C1\OC(C)(C)OC1=O,–
119 to 120 °C,CC(C)(C)OC(=O)CON(Cc1ccc(F)cc1)C(=O)/C=C1\OC(C)(C)OC1=O,–
110 to 111 °C,CON(Cc1cccc(F)c1)C(=O)/C=C1\OC(C)(C)OC1=O,–
105 to 106 °C,CC(C)CON(Cc1ccc(F)cc1)C(=O)/C=C1\OC(C)(C)OC1=O,–
108 to 111 °C (dec.),CON(Cc1ccc(C)cc1)C(=O)/C=C(\O)C(=O)O,–
107 to 108 °C,CC1(C)OC(=O)/C(=C/C(=O)N(Cc2ccccc2)OCc2ccccc2)O1,–
108 to 110 °C,CON(Cc1ccc(C(F)(F)F)cc1)C(=O)/C=C(\O)C(=O)O,–
109 to 111 °C,CON(Cc1ccccc1F)C(=O)/C=C1\OC(C)(C)OC1=O,–
127 to 128 °C,CON(Cc1ccc(F)cc1Cl)C(=O)/C=C1\OC(C)(C)OC1=O,–
137 to 138 °C,CON(Cc1ccc(C(=O)OC(C)(C)C)cc1)C(=O)/C=C1\OC(C)(C)OC1=O,–
123 to 125 °C,CON(Cc1ccc(C(=O)O)cc1)C(=O)/C=C(\O)C(=O)O,–

melting point,SMILES,inhibition at 50 µM [1] [%]
212 to 215 °C (dec.),CON(Cc1ccc(NC(C)=O)cc1)C(=O)/C=C1\OC(C)(C)OC1=O,–
120 °C,COC(=O)c1ccc(CN(OC)C(=O)/C=C2\OC(C)(C)OC2=O)cc1,–
96 to 97 °C,CON(Cc1ccccc1C)C(=O)/C=C1\OC(C)(C)OC1=O,–
148 to 149 °C,CON(Cc1ccc(C#N)cc1)C(=O)/C=C1\OC(C)(C)OC1=O,–
105 to 106 °C,CON(CCCc1ccc(Cl)c(Cl)c1)C(=O)/C=C1\OC(C)(C)OC1=O,–
117 to 119 °C,CON(Cc1ccc(F)c(Br)c1)C(=O)/C=C1\OC(C)(C)OC1=O,–
110 °C,CON(Cc1ccc(C(F)(F)F)cc1)C(=O)/C=C1\OC(C)(C)OC1=O,–
140 to 143 °C,CON(Cc1ccc(F)cc1Cl)C(=O)/C=C(\O)C(=O)O,–
108 to 110 °C,CON(Cc1ccc(C)cc1)C(=O)/C=C1\OC(C)(C)OC1=O,–
95 to 96 °C,CN(C)CCON(Cc1ccc(F)cc1)C(=O)/C=C1\OC(C)(C)OC1=O,–
120 to 122 °C,CON(Cc1ccc(F)c(C)c1)C(=O)/C=C(\O)C(=O)O,–
106 to 107 °C,CON(CCc1ccc(F)cc1)C(=O)/C=C1\OC(C)(C)OC1=O,–
95 to 96 °C,CCON(Cc1ccc(F)cc1)C(=O)/C=C1\OC(C)(C)OC1=O,–
103 °C,CON(Cc1ccccc1OC(C)C)C(=O)/C=C1\OC(C)(C)OC1=O,–
99 °C,CON(Cc1ccc(C)c(F)c1)C(=O)/C=C(\O)C(=O)O,–
107 to 108 °C,CON(Cc1ccc(F)c(C)c1)C(=O)/C=C1\OC(C)(C)OC1=O,–
113 to 114 °C,COc1ccc(CN(OC)C(=O)/C=C2\OC(C)(C)OC2=O)cc1,–
120 to 125 °C,CON(Cc1ccc(F)cc1F)C(=O)/C=C1\OC(C)(C)OC1=O,–
109 to 110 °C,CON(Cc1ccccc1)C(=O)/C=C1\OC(C)(C)OC1=O,–
